# Experimental data reported in US20090098589A1 (priority 2006, published 2009).
# Legend:
# Type in all cases: biochemical
# typical phosphatases = test: Phosphate release from substrate, summary for typical phosphatases; settings: all tested typical phosphatases, compared with fructose 6-phosphate
# Method: (§1) Enzymatic assays were carried out in microtitre plates in 100 μl of reaction mixture. The reaction mixture for acid phytases and phosphatases included: 10 mM of substrate in 200 mM sodium acetate buffer, pH 5.5 containing 0.8 mM CaCl2. For alkaline phytases and phosphatases the same conditions were used except sodium acetate buffer was replaced with 200 mM Tris*HCl buffer, pH 7.5. The reactions were allowed to proceed for 1 h at 37° C. after which time the released phosphate was measured by a modification of a known procedure (Heinonen J. K., Lahti R. J. Anal Biochem. 113 (2), 313-317 (1981)). Briefly, 200 pLI of a freshly prepared AMM solution ([…], 15 mM ammonium molybdate and acetone—1:1:2) was added to the 100 μl reaction mixture in each microtitre plate well. The absorbance at 390 nm was measured not earlier than 10 min and not later than 30 min after addition of the AMM reagent. The amount of phosphate was determined by building a calibration curve with phosphate solutions of known concentrations.
# (§2) Both phytases and phosphatases catalyse the hydrolysis of phosphoesters. Thus, the difference between these two groups of enzymes is quantitative rather than qualitative and can be defined as the relative efficiency in hydrolysis of phytate and simple monophosphoesters such as e.g. glucose 6-phosphate or fructose 6-phosphate. […]
# Shrimp phosphatase = test: Phosphate release from substrate by enzyme, microtitre plate, molybdate detection; settings: 10 mM substrate, pH 7.5, 1 h, 37° C.
# Method: as §1
# (§3) Both phytases and phosphatases catalyse the hydrolysis of phosphoesters. Thus, the difference between these two groups of enzymes is quantitative rather than qualitative and can be defined as the relative efficiency in hydrolysis of phytate and simple monophosphoesters such as e.g. glucose 6-phosphate or fructose 6-phosphate. Phosphatases tend to be relatively inefficient in hydrolysing phytate, and, conversely, most phytases hydrolyse mono-substituted sugar phosphates inefficiently. To test whether polyphosphorylated polyhydroxybenzenes can be used as mimics of phytate we have tested phosphate release from hexaphospho-benzenehexaol and fructose 6-phosphate by several different phytases and phosphatases. Phytases from Aspergillus niger (Natuphos^R), Escherichia coli (Phyzyme XP^R) and Peniophora lycii (Ronozyme^R) as well as potato acid phosphatase were assayed at pH 5.5 while alkaline bacterial phosphatase calf intestinal phosphatase and shrimp phosphatase were assayed at pH 7.5.
# [1] = target: Bacterial alkaline phosphatase (Escherichia coli, UniProt P00634); test: as above; settings: 10 mM substrate, pH 7.5, 1 h, 37° C.
# Method: as §1, §3
# Potato acid phosphatase = test: as above; settings: 10 mM substrate, pH 5.5, 1 h, 37° C.
# Method: as §1, §3
# [2] = target: T1, A. niger phytase (Natuphos^R) (Aspergillus niger, UniProt P34752); test: as above; settings: 10 mM substrate, pH 5.5, 1 h, 37° C.
# T1 construct: purchased
# Method: as §1, §3
# [3] = system: Peniophora lycii phytase (Ronozyme^R); test: as above; settings: 10 mM substrate, pH 5.5, 1 h, 37° C.
# Method: as §1, §3
# [4] = system: Calf intestine phosphatase; test: as above; settings: 10 mM substrate, pH 7.5, 1 h, 37° C.
# Method: as §1, §3
# [5] = target: T2, E. coil phytase (Phyzyme XP^R) (Escherichia coli, UniProt P07102); test: as above; settings: 10 mM substrate, pH 5.5, 1 h, 37° C.
# T2 construct: purchased
# Method: as §1, §3
# all tested phytases = test: Phosphate release from substrate, summary for all tested phytases; settings: compared with fructose 6-phosphate
# Method: as §1, §2
# T2 sequence (P07102 23-432): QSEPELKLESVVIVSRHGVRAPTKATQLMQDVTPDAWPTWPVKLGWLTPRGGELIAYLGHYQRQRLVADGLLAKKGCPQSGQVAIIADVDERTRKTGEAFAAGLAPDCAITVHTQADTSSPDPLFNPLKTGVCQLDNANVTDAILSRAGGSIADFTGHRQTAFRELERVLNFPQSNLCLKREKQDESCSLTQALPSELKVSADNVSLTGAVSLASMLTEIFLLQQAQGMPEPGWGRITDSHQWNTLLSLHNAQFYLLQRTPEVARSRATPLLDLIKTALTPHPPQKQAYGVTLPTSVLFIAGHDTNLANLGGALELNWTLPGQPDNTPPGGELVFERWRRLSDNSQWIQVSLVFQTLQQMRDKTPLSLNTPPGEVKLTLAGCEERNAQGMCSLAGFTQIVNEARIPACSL
# Bacterial alkaline phosphatase, sequence (P00634 22-471): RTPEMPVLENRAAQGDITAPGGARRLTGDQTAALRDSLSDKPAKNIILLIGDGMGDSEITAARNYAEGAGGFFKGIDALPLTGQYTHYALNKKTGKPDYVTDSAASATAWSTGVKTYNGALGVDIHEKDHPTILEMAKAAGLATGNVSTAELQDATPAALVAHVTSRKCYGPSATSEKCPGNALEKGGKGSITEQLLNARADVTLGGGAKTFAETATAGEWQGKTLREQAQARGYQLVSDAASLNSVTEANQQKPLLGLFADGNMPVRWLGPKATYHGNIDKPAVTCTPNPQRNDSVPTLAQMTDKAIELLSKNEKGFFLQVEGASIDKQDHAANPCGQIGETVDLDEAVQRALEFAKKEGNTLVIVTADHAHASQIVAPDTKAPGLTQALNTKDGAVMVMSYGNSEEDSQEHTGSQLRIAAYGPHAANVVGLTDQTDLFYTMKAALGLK
# T1 sequence (P34752 24-467): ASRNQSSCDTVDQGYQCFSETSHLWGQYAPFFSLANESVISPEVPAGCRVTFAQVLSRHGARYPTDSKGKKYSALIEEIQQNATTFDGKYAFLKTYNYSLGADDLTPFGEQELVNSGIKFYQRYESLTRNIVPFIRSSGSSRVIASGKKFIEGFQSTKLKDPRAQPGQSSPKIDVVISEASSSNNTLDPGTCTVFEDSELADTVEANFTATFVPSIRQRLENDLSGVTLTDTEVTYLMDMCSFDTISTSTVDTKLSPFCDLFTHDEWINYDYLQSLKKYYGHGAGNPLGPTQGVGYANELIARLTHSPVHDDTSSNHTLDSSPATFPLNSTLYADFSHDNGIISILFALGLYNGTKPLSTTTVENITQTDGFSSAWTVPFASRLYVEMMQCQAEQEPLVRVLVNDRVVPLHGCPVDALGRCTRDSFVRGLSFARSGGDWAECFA
SMILES,Quality as substrate for typical phosphatases (in words) (typical phosphatases),Ratio of phosphate-releasing activities with the substrate and fructose 6-P (Shrimp phosphatase),Ratio of phosphate-releasing activities with the substrate and fructose 6-P [1],Ratio of phosphate-releasing activities with the substrate and fructose 6-P (Potato acid phosphatase),Ratio of phosphate-releasing activities with the substrate and fructose 6-P [2],Ratio of phosphate-releasing activities with the substrate and fructose 6-P [3],Ratio of phosphate-releasing activities with the substrate and fructose 6-P [4],Ratio of phosphate-releasing activities with the substrate and fructose 6-P [5],Quality as substrate for all tested phytases (in words) (all tested phytases)
O=P(O)(O)Oc1cc(OP(=O)(O)O)cc(OP(=O)(O)O)c1,good substrate,3.8,1.0,3.9,280,250,1.0,500,good substrate
"O=P(O)(O)Oc1c(OP(=O)(O)O)c(OP(=O)(O)O)c(OP(=O)(O)O)c(OP(=O)(O)O)c1OP(=O)(O)O [benzenehexaol hexaphosphate, Benzenehexaol hexaphosphate]",the opposite is true,0.1,0.01,0.23,250,2.7,0.01,122,much better substrate than fructose 6-phosphate
